# From publication PMC10303271, “Synthesis and Receptor Binding Studies of α5 GABAAR Selective Novel Imidazodiazepines Targeted for Psychiatric and Cognitive Disorders” (Molecules, 2023)
# Columns and labels:
# [1] = target: T1, NET (Homo sapiens, UniProt P23975); assay: PDSP primary binding NET; details: primary binding, 10,000 nM; last figure of the line = mean of the 4 before it; read-out: NET, PDSP raw data, mean
# T1 construct: purchased NIMH Psychoactive Drug Screening Program (PDSP)
# Protocol: (§1) To determine if any off-target receptor-binding effects are present, all the novel ligands were sent to the National Institute of Mental Health (NIMH), Psychoactive Drug Screening Program (PDSP). The ligands were screened over a panel of 47 receptors, ion channels, and transporters to determine any other possible interactions with […]. The hERG-binding was also determined. […] No binding of the test compounds to calcium channels was observed. […] It is necessary to screen the compounds for hERG-binding during the early process of drug discovery. The unintentional binding of many drugs to hERG can cause blockade of hERG K+ channels in the heart, which can cause many side effects including cardiac arrhythmias and sudden death. […] All of the α5 imidazodiazepines were tested for hERG-binding.
# (§2) The NIMH PDSP assay protocol book [https://kidbdev.med.unc.edu/databases/PDSP%20Protocols%20II%202013-03-28.pdf accessed on 23 April 2023]. describes the protocols for primary and secondary radio-ligand binding assays. These assays were carried out in a final volume of 125 µL per well in the appropriate binding buffer.
# (§3) The binding of a ligand to a receptor, ion channel, or transporter was determined in the […] of 10 µM of the appropriate reference compound. […] Plates were incubated in the dark for 90 min at rt, and the reactions were stopped by vacuum filtration onto 0.3% polyethyleneimine (PEI) soaked 96-well filter mats using a 96-well Filtermateharvester. This was followed by three washes with cold PBS buffer. Radioactivity was then counted on a Microbeta counter. Nonlinear regression was used to analyze the data with N = 6 replicates.
# [2] = target: T2, H1 (Homo sapiens, UniProt P35367); assay: PDSP primary binding H1; details: primary binding, 10,000 nM; last figure of the line = mean of the 4 before it; read-out: H1, PDSP raw data, mean
# T2 construct: purchased NIMH Psychoactive Drug Screening Program (PDSP)
# T2 sequence (P35367 whole entry): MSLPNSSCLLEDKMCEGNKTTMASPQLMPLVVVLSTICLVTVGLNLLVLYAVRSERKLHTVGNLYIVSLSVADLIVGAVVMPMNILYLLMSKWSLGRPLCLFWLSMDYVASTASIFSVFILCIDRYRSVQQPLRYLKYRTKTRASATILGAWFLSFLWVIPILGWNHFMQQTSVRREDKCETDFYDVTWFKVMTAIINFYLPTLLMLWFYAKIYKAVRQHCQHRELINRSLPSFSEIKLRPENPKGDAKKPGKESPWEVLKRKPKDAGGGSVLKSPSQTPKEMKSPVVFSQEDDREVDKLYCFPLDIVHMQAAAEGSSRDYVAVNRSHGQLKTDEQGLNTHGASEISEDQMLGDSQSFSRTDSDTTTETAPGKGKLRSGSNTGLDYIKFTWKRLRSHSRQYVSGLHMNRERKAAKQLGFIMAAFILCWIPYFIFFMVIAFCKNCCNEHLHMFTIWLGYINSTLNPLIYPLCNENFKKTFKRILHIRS
# Protocol: as §1, §2, §3
# [3] = target: T3, Alpha2Beta2 (Rattus norvegicus, UniProt P12389+P12390); assay: PDSP primary binding Alpha2Beta2; details: primary binding, 10,000 nM; last figure of the line = mean of the 4 before it; read-out: Alpha2Beta2, PDSP raw data, mean
# T3 construct: purchased NIMH Psychoactive Drug Screening Program (PDSP)
# T3 sequence (P12389 28-511): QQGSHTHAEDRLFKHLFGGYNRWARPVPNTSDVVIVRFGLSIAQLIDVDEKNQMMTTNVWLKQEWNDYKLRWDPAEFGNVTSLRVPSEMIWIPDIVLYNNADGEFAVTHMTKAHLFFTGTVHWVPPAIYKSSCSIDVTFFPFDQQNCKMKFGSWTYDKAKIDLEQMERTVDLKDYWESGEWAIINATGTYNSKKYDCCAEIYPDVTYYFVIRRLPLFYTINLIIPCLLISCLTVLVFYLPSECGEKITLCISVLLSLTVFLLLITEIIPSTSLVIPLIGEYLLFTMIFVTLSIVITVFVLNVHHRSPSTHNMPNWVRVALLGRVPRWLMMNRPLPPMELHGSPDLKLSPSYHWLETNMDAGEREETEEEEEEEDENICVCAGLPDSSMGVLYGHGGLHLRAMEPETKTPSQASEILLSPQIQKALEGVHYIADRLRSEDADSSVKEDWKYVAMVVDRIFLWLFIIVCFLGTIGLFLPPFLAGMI
# T3 sequence (P12390 25-500): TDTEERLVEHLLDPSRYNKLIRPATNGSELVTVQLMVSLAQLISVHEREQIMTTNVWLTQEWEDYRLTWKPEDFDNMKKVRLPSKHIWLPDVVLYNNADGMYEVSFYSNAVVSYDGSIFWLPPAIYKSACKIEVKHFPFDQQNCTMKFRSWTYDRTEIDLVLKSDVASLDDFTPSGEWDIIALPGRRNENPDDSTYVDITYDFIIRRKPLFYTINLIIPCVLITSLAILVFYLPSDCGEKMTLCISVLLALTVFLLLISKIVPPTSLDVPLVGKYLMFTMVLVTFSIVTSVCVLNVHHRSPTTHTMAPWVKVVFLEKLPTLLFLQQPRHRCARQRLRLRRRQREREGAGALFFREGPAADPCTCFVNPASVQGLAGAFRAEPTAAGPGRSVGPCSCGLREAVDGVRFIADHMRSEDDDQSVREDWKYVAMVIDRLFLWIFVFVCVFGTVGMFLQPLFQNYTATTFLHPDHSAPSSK
# Protocol: as §1, §2, §3
# [4] = target: T4, Beta1 (Homo sapiens, UniProt P08588); assay: PDSP primary binding Beta1; details: 1.5 h; primary binding, 10,000 nM; last figure of the line = mean of the 4 before it; read-out: Beta1, PDSP raw data, mean
# T4 construct: purchased NIMH Psychoactive Drug Screening Program (PDSP)
# T4 sequence (P08588 whole entry): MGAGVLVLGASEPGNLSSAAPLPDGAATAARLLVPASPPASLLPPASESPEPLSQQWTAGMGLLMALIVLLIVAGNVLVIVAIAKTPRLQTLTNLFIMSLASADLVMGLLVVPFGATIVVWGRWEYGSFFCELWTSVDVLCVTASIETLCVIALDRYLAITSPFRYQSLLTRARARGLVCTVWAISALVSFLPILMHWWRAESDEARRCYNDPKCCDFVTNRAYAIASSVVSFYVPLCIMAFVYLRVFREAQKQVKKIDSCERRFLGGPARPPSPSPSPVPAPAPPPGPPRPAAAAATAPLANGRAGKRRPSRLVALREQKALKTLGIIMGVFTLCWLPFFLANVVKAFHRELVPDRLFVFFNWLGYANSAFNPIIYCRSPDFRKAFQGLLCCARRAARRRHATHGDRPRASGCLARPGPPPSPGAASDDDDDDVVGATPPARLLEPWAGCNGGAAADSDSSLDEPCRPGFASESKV
# Protocol: as §1, §2, §3
# [5] = target: T5, Alpha1D (Homo sapiens, UniProt P25100); assay: PDSP primary binding Alpha1D; details: 1.5 h; primary binding, 10,000 nM; last figure of the line = mean of the 4 before it; read-out: Alpha1D, PDSP raw data, mean
# T5 construct: purchased NIMH Psychoactive Drug Screening Program (PDSP)
# T5 sequence (P25100 1-572): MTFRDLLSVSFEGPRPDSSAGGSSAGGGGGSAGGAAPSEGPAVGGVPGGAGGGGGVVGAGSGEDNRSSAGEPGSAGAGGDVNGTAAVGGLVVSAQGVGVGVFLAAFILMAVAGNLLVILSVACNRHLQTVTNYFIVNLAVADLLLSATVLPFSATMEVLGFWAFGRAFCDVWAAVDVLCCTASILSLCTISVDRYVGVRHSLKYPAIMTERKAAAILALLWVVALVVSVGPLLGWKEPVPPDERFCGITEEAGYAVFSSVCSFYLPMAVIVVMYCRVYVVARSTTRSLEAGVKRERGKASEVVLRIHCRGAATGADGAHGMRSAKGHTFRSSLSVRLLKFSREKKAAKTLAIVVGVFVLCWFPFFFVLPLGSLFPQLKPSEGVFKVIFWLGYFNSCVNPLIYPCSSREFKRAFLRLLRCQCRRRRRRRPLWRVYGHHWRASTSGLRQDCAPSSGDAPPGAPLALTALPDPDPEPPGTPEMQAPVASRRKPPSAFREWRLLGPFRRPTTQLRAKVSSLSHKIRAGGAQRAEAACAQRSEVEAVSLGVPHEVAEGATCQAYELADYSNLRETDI
# Protocol: as §1, §2, §3
# [6] = target: T6, M2 (Homo sapiens, UniProt P08172); assay: PDSP primary binding M2; details: primary binding, 10,000 nM; last figure of the line = mean of the 4 before it; read-out: M2, PDSP raw data, mean
# T6 construct: purchased NIMH Psychoactive Drug Screening Program (PDSP)
# T6 sequence (P08172 1-466): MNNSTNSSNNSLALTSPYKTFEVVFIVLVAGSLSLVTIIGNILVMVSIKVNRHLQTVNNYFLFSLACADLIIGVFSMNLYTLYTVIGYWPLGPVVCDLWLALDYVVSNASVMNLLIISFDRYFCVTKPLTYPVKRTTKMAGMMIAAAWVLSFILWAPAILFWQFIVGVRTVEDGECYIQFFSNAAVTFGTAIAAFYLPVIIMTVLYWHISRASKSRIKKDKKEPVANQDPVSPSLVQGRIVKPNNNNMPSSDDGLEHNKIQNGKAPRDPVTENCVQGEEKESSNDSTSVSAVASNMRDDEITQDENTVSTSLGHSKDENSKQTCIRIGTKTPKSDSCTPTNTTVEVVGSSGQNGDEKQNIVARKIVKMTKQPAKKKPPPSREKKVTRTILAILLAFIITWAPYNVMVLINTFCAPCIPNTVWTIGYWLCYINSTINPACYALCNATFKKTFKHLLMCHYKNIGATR
# Protocol: as §1, §2, §3
# [7] = target: T7, Alpha3Beta4 (Rattus norvegicus, UniProt P04757+P12392); assay: PDSP primary binding Alpha3Beta4; details: primary binding, 10,000 nM; last figure of the line = mean of the 4 before it; read-out: Alpha3Beta4, PDSP raw data, mean
# T7 construct: purchased NIMH Psychoactive Drug Screening Program (PDSP)
# T7 sequence (P04757 26-499): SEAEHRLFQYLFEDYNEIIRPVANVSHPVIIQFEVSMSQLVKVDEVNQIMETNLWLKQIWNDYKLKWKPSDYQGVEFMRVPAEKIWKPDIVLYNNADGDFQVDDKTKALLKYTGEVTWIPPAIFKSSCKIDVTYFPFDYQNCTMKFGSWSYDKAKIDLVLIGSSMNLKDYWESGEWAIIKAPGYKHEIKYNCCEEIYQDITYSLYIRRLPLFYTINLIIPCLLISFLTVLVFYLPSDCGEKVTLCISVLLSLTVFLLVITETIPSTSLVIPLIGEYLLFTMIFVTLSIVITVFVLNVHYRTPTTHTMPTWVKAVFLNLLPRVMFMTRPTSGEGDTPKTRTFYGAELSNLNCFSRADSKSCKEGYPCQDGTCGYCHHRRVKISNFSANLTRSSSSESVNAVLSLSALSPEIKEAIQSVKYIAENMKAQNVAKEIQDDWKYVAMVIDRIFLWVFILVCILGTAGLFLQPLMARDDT
# T7 sequence (P12392 21-495): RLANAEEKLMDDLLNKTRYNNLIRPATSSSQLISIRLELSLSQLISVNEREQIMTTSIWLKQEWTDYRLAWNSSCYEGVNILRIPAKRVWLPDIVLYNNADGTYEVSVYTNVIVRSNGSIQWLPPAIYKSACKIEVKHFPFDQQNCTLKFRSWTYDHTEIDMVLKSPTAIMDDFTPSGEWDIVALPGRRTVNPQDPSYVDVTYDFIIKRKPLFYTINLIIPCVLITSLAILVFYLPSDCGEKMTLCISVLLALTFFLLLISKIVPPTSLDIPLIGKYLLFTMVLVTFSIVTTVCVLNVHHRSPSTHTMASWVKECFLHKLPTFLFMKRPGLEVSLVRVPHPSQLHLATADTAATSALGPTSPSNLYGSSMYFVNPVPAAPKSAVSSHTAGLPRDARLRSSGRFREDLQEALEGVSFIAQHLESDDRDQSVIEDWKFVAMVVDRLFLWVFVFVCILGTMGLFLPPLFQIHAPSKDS
# Protocol: as §1, §2, §3
# [8] = test system: Kainate (Rat Brain); assay: PDSP primary binding Kainate (Rat Brain); details: primary binding, 10,000 nM; last figure of the line = mean of the 4 before it
# Protocol: as §1, §2, §3
# [9] = target: BZP rat brain site; assay: PDSP binding at BZP rat brain site; details: for Ki: N = 2, read-out: Binding Affinity BZR Secondary Screening Ki; for Ki / Binding Affinity BZR % Inhibition (Primary): rat brain; for Binding Affinity BZR % Inhibition (Primary): at 10,000 nM, N = 5
# Protocol: The BZR binding affinity of the test compounds was also measured using rat brain BzR. […] The efficacy of imidazodiazepines on the benzodiazepine receptor depends on various factors, including the specific subtype of the receptor they bind to, their chemical structure, and the dose.
# as §2, §3
# [10] = test system: Alpha7; assay: PDSP primary binding Alpha7; details: primary binding, 10,000 nM; last figure of the line = mean of the 4 before it
# Protocol: as §1, §2, §3
# T1 sequence (P23975 whole entry): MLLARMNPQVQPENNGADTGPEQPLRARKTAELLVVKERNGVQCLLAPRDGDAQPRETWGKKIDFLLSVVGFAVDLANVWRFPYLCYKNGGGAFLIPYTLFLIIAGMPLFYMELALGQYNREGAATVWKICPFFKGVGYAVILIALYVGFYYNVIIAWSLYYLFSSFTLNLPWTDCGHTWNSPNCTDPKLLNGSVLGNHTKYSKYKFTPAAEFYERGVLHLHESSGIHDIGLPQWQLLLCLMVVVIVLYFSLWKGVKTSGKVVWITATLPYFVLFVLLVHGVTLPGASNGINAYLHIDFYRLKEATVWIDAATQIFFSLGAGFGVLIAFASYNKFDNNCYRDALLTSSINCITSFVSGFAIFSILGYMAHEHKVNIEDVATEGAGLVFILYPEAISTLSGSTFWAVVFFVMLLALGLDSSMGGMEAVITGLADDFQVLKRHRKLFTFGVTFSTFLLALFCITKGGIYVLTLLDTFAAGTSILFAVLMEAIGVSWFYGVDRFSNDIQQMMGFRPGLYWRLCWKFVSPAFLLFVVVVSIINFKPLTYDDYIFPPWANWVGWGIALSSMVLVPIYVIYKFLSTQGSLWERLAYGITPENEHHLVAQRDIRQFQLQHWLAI
smiles,measurement,setting,value
"C#Cc1ccc2c(c1)C(c1ccccc1Cl)=N[C@H](C)c1c(C(=O)NC)ncn1-2 [Compound 21, (R)-6-(2′-Chlorophenyl)-8-ethynyl-N,4-dimethyl-4H-benzo[f]imidazo[1,5-a][1,4]diazepine-3-carboxamide]",inhibition at 10 µM,[1],-2.45%
same,inhibition at 10 µM,[2],-9.7%
same,inhibition at 10 µM,[3],3.88%
same,inhibition at 10 µM,[4],13.1%
same,inhibition at 10 µM,[5],-5.53%
same,inhibition at 10 µM,[6],0.22%
same,inhibition at 10 µM,[7],11.3%
same,"Kainate (Rat Brain), PDSP raw data, mean",[8],-4.58%
same,Ki,[9],77.7 ± 2.93 nM
same,Binding Affinity BZR % Inhibition (Primary),[9],94.96 ± 2.06%
same,"Alpha7, PDSP raw data, mean",[10],-10.85%
C#Cc1ccc2c(c1)C(c1ccccc1Cl)=N[C@H](C)c1c(C(=O)N(C)CC)ncn1-2 [Compound 29],inhibition at 10 µM,[1],-2.63%
same,inhibition at 10 µM,[2],-1.99%
same,inhibition at 10 µM,[3],-2.89%
same,inhibition at 10 µM,[4],8.7%
same,inhibition at 10 µM,[5],-11.9%
same,inhibition at 10 µM,[6],3.03%
same,inhibition at 10 µM,[7],0.02%
same,"Kainate (Rat Brain), PDSP raw data, mean",[8],16.79%
same,Ki,[9],394 ± 40.2 nM
same,Binding Affinity BZR % Inhibition (Primary),[9],87.49 ± 2.75%
same,"Alpha7, PDSP raw data, mean",[10],-2.05%
"CCc1noc(-c2ncn3c2[C@@H](C)N=C(c2ccccc2F)c2cc(Cl)ccc2-3)n1 [Compound 36, (R)-5-(8-Chloro-6-(2′-fluorophenyl)-4-methyl-4H-benzo[f]imidazo[1,5-a][1,4]diazepin-3-yl)-3-ethyl-1,2,4-oxadiazole]",inhibition at 10 µM,[1],-2.36%
same,inhibition at 10 µM,[2],7.7%
same,inhibition at 10 µM,[3],-6.7%
same,inhibition at 10 µM,[4],-14.7%
same,inhibition at 10 µM,[5],-14.3%
same,inhibition at 10 µM,[6],-3.62%
same,inhibition at 10 µM,[7],15.6%
same,"Kainate (Rat Brain), PDSP raw data, mean",[8],42.86%
same,Ki,[9],590 ± 44.6 nM
same,"BZP Rat Brain Site, PDSP raw data, mean","[9]; primary binding, 10,000 nM, last figure of the line = mean of the 4 before it",81.81%
same,"Alpha7, PDSP raw data, mean",[10],-13.86%
